Key:
[1] = Peroxynitrite test (total antioxidant effect), antioxidant screening; assay type: biochemical; conditions: comparison in words of the scores of table 3
Description: To assess and verify the effect of lignosulfonate as antioxidant several lignosulfonic samples have been tested in different antioxidant screenings. Table 3. Samples tested for antioxidant effect. Five types of lignosulfonates were investigated; sodium lignosulfonate, a desulfonated oxidized lignosulfonate, and three fractions of a sodium lignosulfonate; low, medium and high molecular weight. […] The desulfonated oxidized lignosulfonate had the best antioxidant effect compared to the sodium lignosulfonate samples. […] As a comparison the synthetic antioxidant Ethoxyquin, gave the highest score in the test.

[2] = Autoxidation of rosmarinic acid with oxygen at 65°C with/without lignosulfonate (Example 3), reversed-phase HPLC-UV 280 nm; assay type: physicochemical; set-up: unit not given here
Description: The combined effect of lignosulfonate was in addition shown in autoxidation experiments using two different lignosulfonates and rosmarinic acid as a representative for a different antioxidant. […] In parallel the same concentration of antioxidant, rosmarinic acid 1%, was supplemented with lignosulfonate. The tested lignins were a sodium lignosulfonate (LS 1) and a calcium lignosulfonate (LS 2), both added in the same amounts based on dry content (17%). Samples were withdrawn daily and the amount of remaining antioxidant was chromatographically quantified. Reversed-phase HPLC with UV-detection at 280 nm was the method of choice for monitoring the positive effect of LS.

With `Cc1cc(C(C)(C)C)c(O)c(C(C)(C)C)c1` [BHT, 2,6-di-tert-butyl-4-methylphenol] the antioxidant effect [1] was “scored lowest”.
With `O=C(/C=C/c1ccc(O)c(O)c1)O[C@H](Cc1ccc(O)c(O)c1)C(=O)O` [Rosmarinic acid] the “Autoxidation of rosmarinic acid (amount of remaining antioxidant)” value ([2]; Day 0, rosmarinic acid 1%, lignosulfonate 17% dry content) was 100, the “Autoxidation of rosmarinic acid (amount of remaining antioxidant)” value ([2]; Day 1) was 72 and the “Autoxidation of rosmarinic acid (amount of remaining antioxidant)” value ([2]; Day 2) was 45. The “Autoxidation of rosmarinic acid (amount of remaining antioxidant)” value ([2]; Day 3) was 11, the “Autoxidation of rosmarinic acid (amount of remaining antioxidant)” value ([2]; Day 4) was 2 and the “Autoxidation of rosmarinic acid (amount of remaining antioxidant)” value ([2]; Day 4, listed as rosmarinic acid) was “completely degraded”.
For `CCOc1ccc2c(c1)C(C)=CC(C)(C)N2` [Ethoxyquin, 1,2-dihydro-6-etoxy-2,2,4-trimetylquinoline], the antioxidant effect [1] was “highest score”.
